Experimental data from ChEMBL document CHEMBL1201862, “PubChem BioAssay data set” (2004).
Calls of active or inactive are those of the source.

How the values were obtained:
[1] = growth inhibition of PfATP4-mutant resistant parasites – NITD609-resistant line, SYBR Green, dry powder, dose response (AID 1159571); assay type: functional, cell-based;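 note: parasites synchronized at ring stage by sorbitol before testing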
[2] = toxicity to human HepG2 hepatoma cells – cell-based, plate reader, dry powder samples, cytotoxicity control, dose response (AID 1159569); assay type: functional;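 note: inhibitor potency with signal falling toward the positive control level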
[3] = Dd2 malaria parasite growth inhibition potency – SYBR Green, dry powder samples, dose response (AID 1159566); assay type: functional, cell-based;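 note: potency for growth inhibition with lower SYBR green DNA signal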
[4] = growth inhibition of yeast DHODH-expressing 3D7 parasites – SYBR Green, dry powder samples, dose response (AID 1159570); assay type: functional, cell-based;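 note: parasite growth measured after 72 hours of compound exposure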
[5] = P. falciparum Dd2 growth inhibitors, dose response, SYBR Green, cherry-picked samples (AID 1159567); assay type: functional, cell-based
[6] = Luminescence Cell-Based Dose Confirmation to Identify Activators of 5'UTR Stem-Loop Driven Alpha-Synuclein mRNA Translation in H4 Neuroglioblastoma Cells. [Related pubchem assays: 1829 (Project Summary), 1814 (Primary HTS)]; assay type: functional
[7] = Luminescence Cell-Based Dose Response HTS to Identify Activators of Luciferase Translation or Activity in H4 […] Cells. [Related pubchem assays: 1829 (Project Summary), 1814 (Primary HTS)]; assay type: functional
[8] = Luminescence Cell-Based Dose Response to Identify Activators of 5'UTR Stem-Loop Driven Prion Protein mRNA Translation in H4-C Neuroglioblastoma Cells. [Related pubchem assays: 1829 (Project Summary), 1814 (Primary HTS)]; assay type: functional
H4 = test: Luminescence Cell-Based Dose Response HTS to Identify Activators of 5'UTR Stem-Loop Driven Prion Protein mRNA Translation in H4 Neuroglioblastoma Cells. [Related pubchem assays: 1829 (Project Summary), 1814 (Primary HTS)]; assay type: functional; conditions: Homo sapiens
[9] = Luminescence Cell-Based Dose Response to Identify Activators of Luciferase Translation or Activity in H4-C Neuroglioblastoma Cells. [Related pubchem assays: 1829 (Project Summary), 1814 (Primary HTS)]; assay type: functional
cells [10] = test: cells
[11] = target: T1, Heat shock factor protein 1 (Mus musculus, UniProt P38532); test: enhancement of HSF1-driven luciferase signal – cell-based, NIH3T3, luminescence, dose retest, confirmation (AID 435004); assay type: functional;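 note: stress induced by proteasome inhibitor MG132 added 30 min after compound; luciferase reporter driven by HSF1 response element in NIH3T3 cells; actives raise luminescence as potentiators of the MG132 stress response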
T1 sequence (P38532 whole entry): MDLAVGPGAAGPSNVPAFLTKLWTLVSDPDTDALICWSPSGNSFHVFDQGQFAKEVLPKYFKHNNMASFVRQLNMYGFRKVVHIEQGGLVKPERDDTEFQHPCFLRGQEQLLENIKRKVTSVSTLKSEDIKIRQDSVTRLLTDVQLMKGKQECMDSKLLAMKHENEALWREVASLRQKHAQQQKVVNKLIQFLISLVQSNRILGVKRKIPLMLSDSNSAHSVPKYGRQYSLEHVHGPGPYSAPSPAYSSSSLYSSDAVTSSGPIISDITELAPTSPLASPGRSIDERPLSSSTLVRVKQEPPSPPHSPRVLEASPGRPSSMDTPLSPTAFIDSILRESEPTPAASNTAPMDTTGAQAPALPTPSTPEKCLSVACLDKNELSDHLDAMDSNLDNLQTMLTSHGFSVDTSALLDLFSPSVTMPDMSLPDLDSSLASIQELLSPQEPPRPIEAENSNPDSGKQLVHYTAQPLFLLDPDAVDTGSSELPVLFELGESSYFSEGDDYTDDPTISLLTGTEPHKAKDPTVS

[12] = target: T2, Oxysterols receptor LXR-beta (Homo sapiens, UniProt P55055); assay type: functional, cell-based;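 note: Cell-based luminescence dose-response assay of agonist activity at LXR, run as a confirmatory counterscreen to a daf-12 agonist screen; agonist potency from rising luciferase signal of a Gal4-LXR reporter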
T2 sequence (P55055 whole entry): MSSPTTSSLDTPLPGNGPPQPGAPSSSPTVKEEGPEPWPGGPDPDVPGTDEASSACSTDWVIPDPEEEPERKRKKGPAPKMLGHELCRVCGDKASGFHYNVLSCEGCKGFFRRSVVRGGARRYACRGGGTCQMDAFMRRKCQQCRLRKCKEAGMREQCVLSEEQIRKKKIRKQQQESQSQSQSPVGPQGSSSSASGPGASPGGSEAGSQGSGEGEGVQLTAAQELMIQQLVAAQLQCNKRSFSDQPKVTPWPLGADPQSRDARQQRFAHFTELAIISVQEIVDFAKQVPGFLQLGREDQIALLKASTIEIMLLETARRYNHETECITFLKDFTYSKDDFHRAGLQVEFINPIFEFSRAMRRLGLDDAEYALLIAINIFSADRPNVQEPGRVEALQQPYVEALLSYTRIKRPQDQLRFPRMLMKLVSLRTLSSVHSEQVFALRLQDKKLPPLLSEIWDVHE

INS1 = test: INS-1E survival protection against cytokine death – cell-based, luminescence, retest, dose response (AID 449756); assay type: functional; conditions: Rattus norvegicus;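 note: cell death triggered by IL-1 beta plus TNF-alpha plus IFN-gamma mixture; protective hits raise ATP signal compared with cytokine alone wells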
[13] = target: Sphingosine 1-phosphate receptor 2 (Homo sapiens, UniProt O95136); test: Dose Response Cell Based Assay for Antagonists of the S1P2 Receptor. [Related pubchem assays: 856, 736 ]; assay type: functional
[14] = Luminescence-based cell-based high throughput dose response assay to identify activators of the DAF-12 from the parasite S. stercoralis (ssDAF-12).; assay type: functional
[15] = target: T2, Oxysterols receptor LXR-beta; test: LXR agonists, Gal4 luciferase reporter, dose response, counter-screen for ssDAF-12 agonist project, cell-based, luminescence, HEK293, S. stercoralis campaign (AID 720737); assay type: functional; conditions: read-out: IC50 (the source's name)
[16] = Trypanosoma cruzi growth suppression in host cells – NIH3T3 host cells, beta-gal luminescence, confirmation (AID 2044); assay type: functional, cell-based;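 note: intracellular parasites grown in NIH/3T3 mouse fibroblasts as host cells; luminescent beta-galactosidase reporter signal from transgenic T. cruzi replicating inside host cells; inhibitors lower the luminescence signal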
cells [17] = test: cells; remark: listed apart in the source
[18] = NIH3T3 cell viability loss – ATP luminescence, mouse fibroblasts, counter-screen, dose response (AID 2010); assay type: functional, cell-based;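 note: cells exposed to compound for about 90 hours before reading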
Estrogen receptor beta = Estrogen receptor beta (Homo sapiens, UniProt Q92731);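 note: recombinant ER-beta bound to coactivator SRC1 peptide in presence of estradiol agonist; inhibitors block coactivator peptide binding and lower the FRET signal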
[19] = reduction of Shn3 3'UTR-driven luciferase in osteoblasts – cell-based, Clone20 osteoblasts, firefly luciferase, cherry-picked, dose response (AID 624132); assay type: functional;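 note: firefly luciferase luminescence from reporter carrying the Shn3 3'UTR in osteoblasts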
BJ [20] = test: BJ-TERT fibroblast viability loss – cell-based, RAS-independent, luminescence, dose response (AID 1933); assay type: functional; conditions: Homo sapiens
[21] = non-specific 3'UTR reporter inhibition in Clone20-Shn3RL – cell-based, Renilla luciferase, cherry-picked, counter-screen for Shn3 inhibitor project, dose response (AID 624133); assay type: functional
[22] = general cell-killing toxicity readout – plate reader, dry powder samples, cytotoxicity control for PAX8 inhibitor project, dose response (AID 743021); assay type: functional, cell-based
[23] = loss of viability in HepG2 cells – cell-based, CellTiter-Glo, cherry-picked, cytotoxicity control for Shn3 inhibitor project, dose response (AID 624134); assay type: functional
[24] = HEK-293T viability loss after treatment – luminescence, T-cell screen hits, cytotoxicity control for TCR NF-kB inhibitor project, dose response (AID 489026); assay type: functional, cell-based;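 note: cells exposed to compound about 14 hours before the viability readout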
BJ [25] = test: cells; assay type: functional, cell-based; conditions: Homo sapiens
Paired box protein Pax-8 = Paired box protein Pax-8 (Homo sapiens, UniProt Q06710); test: PAX8 transcriptional activity inhibition in RMG-I – RMG-I cells, luciferase, cherry-pick, dose response (AID 687027); assay type: functional, cell-based;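 note: luciferase reporter driven by Pax8 target thyroperoxidase promoter measured by SteadyGlo luminescence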
BJ [26] = test: BJ-TERT-LT-ST fibroblast viability loss – cell-based, RAS-independent, luminescence, dose response (AID 1935); assay type: functional; conditions: Homo sapiens;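 note: BJ fibroblasts immortalized with TERT plus LT and ST oncogenes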
[27] = viability loss of HPDE-C7K cells – cell-based, fluorescence, HTS, primary screen (AID 431); assay type: functional; conditions: Homo sapiens
[28] = HPDE-C7 pancreatic duct cell viability loss – fluorescence, HTS (AID 430); assay type: functional, cell-based; conditions: Homo sapiens
[29] = DRD fibroblast viability loss – cell-based, non-viral oncogenic, luminescence, dose response (AID 1934); assay type: functional; conditions: Homo sapiens
[30] = toxicity to human hepatoma HepG2 cells – cell-based, cherry-picked samples, cytotoxicity control, dose response (AID 1159577); assay type: functional
[31] = viability loss in A549 lung cancer cells – cell-based, cherry-picks, […], cytotoxicity control, dose response (AID 1053119); assay type: functional
[32] = viability loss in HEK293 kidney cells – cell-based, cherry-picks, set 5, cytotoxicity control, dose response (AID 1053117); assay type: functional
[33] = viability loss in HepG2 hepatoma cells – cell-based, cherry-picks, set 5, cytotoxicity control, dose response (AID 1053118); assay type: functional
[34] = Luminescence Cell-Based Dose Confirmation HTS to Identify Activators of 5'UTR Stem-Loop Driven Alpha-Synuclein mRNA Translation in H4 Neuroglioblastoma Cells. [Related pubchem assays: 1829 (Project Summary), 1814 (Primary HTS)]; assay type: functional
Ephrin type-A receptor 4 = Ephrin type-A receptor 4 (Mus musculus, UniProt Q03137); test: EphA4 ligand-binding antagonists – biochemical, colorimetric, mouse EphA4, primary screen (AID 689); assay type: functional
[35] = target: T3, Probable nicotinate-nucleotide adenylyltransferase (Staphylococcus aureus (strain N315), UniProt P65502); assay type: functional, Staphylococcus aureus subsp. aureus N315;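 for IC50 Mean: confirmatory dose-response retesting of NadD inhibitor hits first found in an ultra-high-throughput screen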
[36] = target: T3, Probable nicotinate-nucleotide adenylyltransferase; assay type: functional, Staphylococcus aureus subsp. aureus N315; conditions: read-out: IC50_Mean
[37] = viability inhibitors of stage V gametocytes – luminescence, dose response (AID 1117278); assay type: functional, cell-based;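 note: gametocytes exposed to compound for 24 hours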
[38] = viability loss in human Jurkat cells – cell-based, luminescence, cytotoxicity control for P. falciparum gametocyte viability project, dose response (AID 1117277); assay type: functional;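 note: potency reflects loss of cellular ATP meaning fewer viable cells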
[39] = HIV-1 Vif–A3G interaction blockers – biochemical, TR-FRET, GST-Vif 1-94, biotin-A3G peptide, dose response retest, primary screen (AID 1117319); assay type: functional;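 note: TR-FRET signal of purified GST-Vif binding a biotinylated A3G peptide; inhibitors lower the FRET signal by blocking Vif and A3G binding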

T3 sequence (P65502 whole entry): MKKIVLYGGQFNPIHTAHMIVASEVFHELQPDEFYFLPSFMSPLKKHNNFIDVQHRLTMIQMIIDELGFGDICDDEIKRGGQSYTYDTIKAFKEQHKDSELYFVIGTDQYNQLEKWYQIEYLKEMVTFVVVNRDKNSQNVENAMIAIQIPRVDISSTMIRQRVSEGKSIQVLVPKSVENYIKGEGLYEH
Sequence of Ephrin type-A receptor 4 (Q03137 whole entry): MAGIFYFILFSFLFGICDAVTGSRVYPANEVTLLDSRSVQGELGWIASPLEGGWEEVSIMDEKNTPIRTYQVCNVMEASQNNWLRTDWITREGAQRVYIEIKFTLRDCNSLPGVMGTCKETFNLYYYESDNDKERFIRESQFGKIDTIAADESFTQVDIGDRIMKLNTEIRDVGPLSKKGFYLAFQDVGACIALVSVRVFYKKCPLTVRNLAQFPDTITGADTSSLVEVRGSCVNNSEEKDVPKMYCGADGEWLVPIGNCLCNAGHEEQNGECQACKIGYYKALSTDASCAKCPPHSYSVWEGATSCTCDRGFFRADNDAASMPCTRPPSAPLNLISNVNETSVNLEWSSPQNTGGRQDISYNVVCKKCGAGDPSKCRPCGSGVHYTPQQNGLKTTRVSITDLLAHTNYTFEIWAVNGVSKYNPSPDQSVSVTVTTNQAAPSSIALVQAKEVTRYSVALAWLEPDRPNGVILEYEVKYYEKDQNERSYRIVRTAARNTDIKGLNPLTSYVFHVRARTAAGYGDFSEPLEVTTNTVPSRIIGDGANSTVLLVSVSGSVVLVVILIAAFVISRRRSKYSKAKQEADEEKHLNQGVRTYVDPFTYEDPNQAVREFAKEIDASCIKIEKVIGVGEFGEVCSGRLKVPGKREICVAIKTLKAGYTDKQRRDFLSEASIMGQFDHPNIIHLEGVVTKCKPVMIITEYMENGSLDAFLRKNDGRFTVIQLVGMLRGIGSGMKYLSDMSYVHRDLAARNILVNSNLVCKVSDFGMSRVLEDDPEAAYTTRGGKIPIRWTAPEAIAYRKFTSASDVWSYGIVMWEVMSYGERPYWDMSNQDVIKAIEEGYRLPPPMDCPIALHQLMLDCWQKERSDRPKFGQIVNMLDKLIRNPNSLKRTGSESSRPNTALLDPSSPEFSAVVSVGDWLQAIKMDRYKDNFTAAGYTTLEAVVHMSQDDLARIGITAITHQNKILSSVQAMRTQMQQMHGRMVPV
Sequence of Estrogen receptor beta (Q92731 whole entry): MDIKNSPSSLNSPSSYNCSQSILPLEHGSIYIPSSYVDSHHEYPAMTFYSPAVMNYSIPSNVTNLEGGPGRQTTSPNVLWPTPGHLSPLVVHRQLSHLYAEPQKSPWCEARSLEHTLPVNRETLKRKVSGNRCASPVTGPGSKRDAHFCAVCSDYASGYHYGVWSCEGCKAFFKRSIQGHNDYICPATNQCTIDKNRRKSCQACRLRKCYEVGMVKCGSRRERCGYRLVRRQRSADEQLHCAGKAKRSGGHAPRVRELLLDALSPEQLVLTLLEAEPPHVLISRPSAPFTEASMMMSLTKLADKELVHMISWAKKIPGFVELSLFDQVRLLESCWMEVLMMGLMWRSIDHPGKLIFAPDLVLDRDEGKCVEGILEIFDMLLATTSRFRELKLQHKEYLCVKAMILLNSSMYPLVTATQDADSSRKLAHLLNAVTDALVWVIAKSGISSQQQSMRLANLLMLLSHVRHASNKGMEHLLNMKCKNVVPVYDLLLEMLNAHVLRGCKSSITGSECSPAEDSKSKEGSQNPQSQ
Sequence of Sphingosine 1-phosphate receptor 2 (O95136 whole entry): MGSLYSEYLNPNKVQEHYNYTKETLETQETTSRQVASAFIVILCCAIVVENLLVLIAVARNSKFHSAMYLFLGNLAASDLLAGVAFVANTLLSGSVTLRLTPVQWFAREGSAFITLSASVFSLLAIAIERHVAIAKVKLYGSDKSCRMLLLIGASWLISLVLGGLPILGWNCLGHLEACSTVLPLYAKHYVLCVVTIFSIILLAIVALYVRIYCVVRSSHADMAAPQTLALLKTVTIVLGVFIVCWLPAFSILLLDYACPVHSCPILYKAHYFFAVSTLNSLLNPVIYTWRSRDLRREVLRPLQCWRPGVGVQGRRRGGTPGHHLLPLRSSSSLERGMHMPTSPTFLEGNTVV
Sequence of Paired box protein Pax-8 (Q06710 whole entry): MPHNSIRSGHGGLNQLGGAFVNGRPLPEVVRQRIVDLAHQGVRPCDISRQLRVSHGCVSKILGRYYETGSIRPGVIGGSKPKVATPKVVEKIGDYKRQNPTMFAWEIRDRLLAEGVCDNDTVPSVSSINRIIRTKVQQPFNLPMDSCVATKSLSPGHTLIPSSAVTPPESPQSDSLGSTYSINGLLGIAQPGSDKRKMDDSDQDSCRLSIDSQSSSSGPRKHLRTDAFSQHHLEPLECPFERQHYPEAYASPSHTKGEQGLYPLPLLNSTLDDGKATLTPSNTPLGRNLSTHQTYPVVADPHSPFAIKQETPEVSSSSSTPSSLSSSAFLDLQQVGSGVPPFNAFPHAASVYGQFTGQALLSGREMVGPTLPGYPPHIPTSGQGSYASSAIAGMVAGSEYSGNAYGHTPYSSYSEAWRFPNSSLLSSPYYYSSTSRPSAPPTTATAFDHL

Compound: COCC(=O)Nc1ccc2c(c1)C(=O)N(C)C[C@H](OC)[C@H](C)CN(Cc1cc(F)ccc1F)[C@@H](C)CO2
- AC50 [1]: 1.84 µM (active)
- AC50 [2]: > 100 µM (inactive)
- AC50 [3]: 1.18 µM (active)
- AC50 [4]: 13.1 µM (active)
- AC50 [5]: 2.25 µM (active)

Compound: O=C(Nc1cccc(Cn2cccn2)c1)c1cc2c(s1)CCCC2
- EC50 [6]: 0.651 µM (active)
- EC50 [7]: < 0.1 µM (active)
- EC50 [8]: > 12 µM (not active)
- EC50 (H4): 10.9 µM (active)
- EC50 [9]: 0.853 µM (active)

Compound: CC(C)c1ccc(-n2cnn(-c3ncccc3[N+](=O)[O-])c2=O)cc1
- EC50 (cells [10]): > 67.5 µM (inactive)
- EC50 [11]: > 260 µM (inactive)
- EC50 [12]: > 67.5 µM (inactive)

Compound: COc1ccc(OC)c(NC(=O)CSc2ncnc3c2cnn3-c2ccccc2Cl)c1
- AC50 (INS1): 2.15 µM (active)
- IC50 [13]: 3.67 µM (active)

Compound: COc1ccc(-c2nc3ccccn3c2Cl)cc1
- IC50 [14]: > 67.6 µM (inactive)
- EC50 [15]: > 67.6 µM (inactive)

Compound: CCc1ccc(CN2CCCC(CCC(=O)N3CCN(c4ccccn4)CC3)C2)o1 (stereo not drawn)
- EC50 [16]: < 0.1 µM (active)
- EC50 (cells [17]): 0.021 µM (active)
- EC50 [18]: > 60 µM (not active)

Compound: C=CCN1C(=O)NC(=O)/C(=C(/CC)NCc2cccnc2)C1=O
- IC50 (Estrogen receptor beta): > 50 µM (not active)

Compound: COc1cccc(N2CCN(c3ncnc4c3cnn4-c3ccc(C)cc3C)CC2)c1
- AC50 [19]: 4.65 µM (active)
- EC50 (BJ [20]): 14.4 µM (active)
- AC50 [21]: 4.03 µM (active)
- AC50 [22]: 17.5 µM (active)
- AC50 [23]: 37.2 µM (active)
- IC50 [24]: 3.73 µM (active)
- EC50 (BJ [25]): 16.8 µM (active)
- AC50 (Paired box protein Pax-8): 6.38 µM (active)
- EC50 (BJ [26]): > 150 µM (inconclusive)
- EC50 [27]: 3.17 µM (active)
- EC50 [28]: 3.78 µM (active)
- EC50 [29]: 11 µM (active)

Compound: N#C[C@H]1[C@H](c2ccc(-c3cccc(F)c3)cc2)[C@H](CO)N1C(=O)c1cccnc1
- AC50 [1]: 0.69 µM (active)
- AC50 [2]: 76.8 µM (active)
- AC50 [30]: > 39 µM (inactive)
- AC50 [3]: 0.641 µM (active)
- AC50 [4]: 1.33 µM (active)
- AC50 [5]: 1.16 µM (active)

Compound: CO[C@@H]1CN(C)C(=O)c2ccc(NC(=O)c3ccc(-c4ccccc4)cc3)cc2OC[C@H](C)NC[C@@H]1C
- AC50 [31]: 16.2 µM (active)
- AC50 [32]: 18.1 µM (active)
- AC50 [30]: 8.05 µM (active)
- AC50 [33]: 12.2 µM (active)
- AC50 [5]: 4.99 µM (active)

Compound: Cc1ccc(CNC(=O)c2ccc(Cn3cc(-c4ccc(C)cc4)nc3-c3ccncc3)cc2)cc1
- EC50 [34]: < 0.1 µM (active)
- EC50 [6]: 1.12 µM (active)
- EC50 [7]: < 0.1 µM (active)
- EC50 [8]: > 12 µM (not active)
- EC50 (H4): 1.33 µM (active)
- EC50 [9]: 0.656 µM (active)

Compound: O=c1[nH][nH]c2cc(=O)n(-c3cccc(C(F)(F)F)c3)nc12
- IC50 [14]: > 67.5 µM (inactive)
- EC50 [15]: > 67.5 µM (inactive)
- EC50 [11]: > 260 µM (inactive)

Compound: CC(C)CC(C(=O)Nc1oc(-c2ccco2)c(-c2ccco2)c1C#N)N1C(=O)c2ccccc2C1=O (stereo not drawn)
- IC50 (Ephrin type-A receptor 4): > 100 µM (not active)
- IC50 [35]: 16.4 µM (active)
- IC50 [36]: 53.1 µM (active)

Compound: COc1ccc(Cl)cc1C(=O)CSc1nnnn1C1CCCCC1
- IC50 [37]: > 109 µM (inactive)
- IC50 [38]: 10.9 µM (inactive)

Compound: O=C(Cn1nc(-c2ccc(Cl)cc2)ccc1=O)NCc1ccc2c(c1)OCO2
- IC50 [39]: > 100 µM (active)

Compound: Cc1cc(N/C=C/C(=O)c2cccs2)ccc1F
- EC50 (cells [10]): > 67.6 µM (inactive)
- EC50 [12]: > 67.6 µM (inactive)

Compound: NCCN1CCN(CCN)CC1
- IC50 [37]: > 109 µM (inactive)
- IC50 [38]: > 83.4 µM (inactive)
